From patent publication US11834401B2, “Treating and preventing diseases by modulating cell mechanics” (THE JOHNS HOPKINS UNIVERSITY, priority 2013, dated 2023)

Assays:
human myosin IIB = target: T1, human myosin IIB (Homo sapiens, UniProt P35580); experiment: In vitro myosin assembly assay; format: biochemical; conditions: n=3
T1 construct: human myosin IIB (residues 1729-1976); 6xHis (N); mCherry (N); made in house; host or cells: E. coli BL-21 Star (DE3)
Description: (§1) The sedimentation assays were used to assess myosin II assembly in cells. The assembly assay used purified proteins (N-terminal 6×His tag (SEQ ID NO: 1), fused to the mCherry fluorophore, fused to the assembly domains of Dictyostelium myosin II (residues 1533-1823), human myosin IIA (residues 1722-1960), and human myosin IIB (residues 1729-1976), and 6×His-tagged (SEQ ID NO: 1) fused Dictyostelium 14-3-3). Purified chicken nonmuscle IIB heavy meromyosin (HMM) was used for in vitro motility.
(§2) Bacterial expression plasmids coding for an N-terminal 6×His tag (SEQ ID NO: 1), fused to the mCherry fluorophore, fused to the assembly domains of Dictyostelium myosin II (residues 1533-1823), human myosin IIA (residues 1722-1960), or human myosin IIB (residues 1729-1976) were generated using standard cloning techniques.
(§3) In vitro assembly of myosin was conducted according to the method of Zhou et al, 2010 (Zhou Q et al., 2010), with a number of modifications. The protein concentration for each species in the tube was increased to […] to ensure that the smaller protein was adequately visible by Coomassie Blue staining, and the incubation time and temperature was adjusted to 30 min at the physiological temperature for each myosin species (22° C. for Dictyostelium myosin, 37° C. for human myosins). These temperatures were also used during the centrifugation step.

human myosin IIA = target: T2, human myosin IIA (Homo sapiens, UniProt P35579); experiment: In vitro myosin assembly assay; format: biochemical; conditions: n=3
T2 construct: human myosin IIA (residues 1722-1960); 6xHis (N); mCherry (N); made in house; host or cells: E. coli BL-21 Star (DE3)
Description: as §1, §2, §3

[1] = tested on: chicken non-muscle IIB (NMIIB) HMM; experiment: In vitro motility assay (gliding actin filaments); format: biochemical; conditions: 500 nM each alone; 250 nM each in 1:1 ratio
Description: as §1
The chicken non-muscle IIB (NMIIB) HMM construct (residues 1-1228, GenBank™ accession number M93676, no splice insert) was purified as previously described (Norstrom M F, et al., 2010). Motility assays were performed at 22° C. and imaged on Zeiss Axiovert 200 microscope with an Andor Luca camera. The flow cells were constructed using a glass slide, two pieces of double-sided tape, and nitrocellulose-coated coverslip. Flow cells were incubated with 0.05 mg/ml green fluorescent protein antibodies (MP Biomedicals, 0.05 mg/ml in assay buffer (AB) without DTT: 25 mM KCl, 25 mM Imidazole·HCl, pH 7.5, 1 mM K·EGTA, 4 mM MgCl2; 2 min incubation time), followed by a bovine serum albumin block (1 mg/ml in AB—as above with 10 mM DTT; 6 min incubation time). NMIIB was added to the flow cell at a concentration of 420 nM and incubated for 2 min. […]

[2] = tested on: NLS-tdTomato expressing Dictyostelium cells
Experimental: NLS-tdTomato expressing Dictyostelium cells were challenged with […] compounds from the ChemBridge Divert-SET library and imaged over three days. Raw data was segmented by CIMPAQ, a designed analytical platform, which rank ordered hits based on their cytokinesis or mitotic inhibitory activity, or lethality. Hits were confirmed through a dose-dependent secondary screening.
Ax3::NLS-tdTomato cells were plated on 384-well COP plates with a MicroFloSelect microplate dispenser (BioTek, Winooski, Vt.) at volumes of 80 μl with a cell concentration of 1000 cells/ml for the 24- and 48-hr time points and at the same volume with a cell concentration of 220 cells/ml for the 72-hr time point. Each plate contained four rows of untreated cells with 0.2% DMSO. For the remaining wells, […] of each small molecule maintained at the Johns Hopkins ChemCORE facility, was added, with a final DMSO concentration of 0.2%. Almost half of the ChemBridge Divert-SET library, which is a 50,000 compound chemical diversity library, was screened over a three-day period on a Becton Dickinson Pathway 855 Bioimager System using a 20× objective (NA 0.75). Each image consisted of a montage of four images collected around the center of the well, resulting in a total size of 1344×1024 pixels per image.
Secondary chemical screening was carried out in quadruplicate, with identical culturing conditions as to the primary screen. 14 mM stocks of each compounds dissolved in 100% DMSO were diluted to the following final concentrations: […], 3.5 nM, 35 nM, 350 nM, 3.5 μM, and 35 μM.
Raw image files from both the primary and secondary screening were processed through CIMPAQ (FIGS. 9E and 9F). The single wavelength fluorescence images were converted from 16-bit format to 8-bit format. The MATLAB Image Processing Toolbox was utilized to segment the images in order to identify the nuclei and cytoplasm. The number of nuclei within each segmented cell was quantified to produce a histogram of nuclei per cell for each image (FIG. 9G). All segmented cells that were coincident with the image edge were disregarded.
Image analysis using CIMPAQ: From the histogram of nuclei per cell count, the ratio of the number of multinucleate cells to the number of mononucleate cells and the ratio of the number of binucleate cells to the number of mononucleate cells were computed. Multinucleate cells are defined as cells that contain >2 nuclei. The distribution of both ratios across multiple wells were simultaneously visualized using a scatter plot, with the ratio of multinucleate cells to mononucleate cells plotted on the x-axis and the ratio of binucleate cells to mononucleate cells plotted on the y-axis (FIGS. 9H and 9I). Other information such as the average number of nuclei per cell, the mean nuclear area, and the normalized histogram with respect to total cell number were also computed.
Hit identification using CIMPAQ: Compounds that generate an increase in the number of multinucleate (>2 nuclei/cell) cells are considered cytokinesis inhibitors. Because nearly all cultured cells, including Dictyostelium, have a low background (typically <5% for WT) of non-mononucleate cells, CIMPAQ spreads the data for each sample by determining the ratio (bi:mono) of binucleate (2 nuclei/cell) to mononucleate cells and the ratio (multi:mono) of multinucleate (>2 nuclei/cell) to mononucleate cells. These two ratios then define a set of Cartesian coordinates, describing the effect of each compound on a given cell-line. The coordinates for each compound are plotted on a two-dimensional graph. CIMPAQ fits the control data to a two-dimensional Gaussian distribution (FIG. 9H) and determines the contour lines for two standard deviations (2SD), 3SD, etc. from the control mean (FIG. 9I).
Hit compounds are rank-ordered based on how many SDs away they are from the untreated wells.

T2 sequence (P35579 1722-1960): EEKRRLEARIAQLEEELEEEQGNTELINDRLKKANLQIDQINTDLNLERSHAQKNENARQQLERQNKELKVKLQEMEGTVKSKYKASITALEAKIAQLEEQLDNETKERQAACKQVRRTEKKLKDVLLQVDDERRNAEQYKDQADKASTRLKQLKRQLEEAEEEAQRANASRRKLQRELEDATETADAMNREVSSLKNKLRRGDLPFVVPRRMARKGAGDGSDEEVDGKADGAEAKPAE
T1 sequence (P35580 1729-1976): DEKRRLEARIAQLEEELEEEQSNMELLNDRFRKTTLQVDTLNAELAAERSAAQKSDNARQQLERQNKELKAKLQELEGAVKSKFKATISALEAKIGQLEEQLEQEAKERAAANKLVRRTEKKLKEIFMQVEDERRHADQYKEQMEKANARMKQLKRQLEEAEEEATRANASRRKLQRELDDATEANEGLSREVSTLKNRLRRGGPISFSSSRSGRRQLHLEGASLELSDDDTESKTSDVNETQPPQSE

Row | SMILES | in vitro assembly vs DMSO control (human myosin IIB) | in vitro assembly vs DMSO control (human myosin IIA) | non-muscle myosin IIB velocity (gliding filament velocity of actin filaments) [1] | cytokinesis inhibition / cellular effect of a single component ([2]; compound alone) | lethality to Dictyostelium cells ([2]; 5000 nM)
1 | Nc1ccc(Cl)c(Cl)c1 [3,4-DCA, 3,4-dichloroaniline] | unaffected | unaffected | no significant effect | limited cellular effect | 
2 | CC(=O)c1ccc(O)cc1 [4-HAP, 4-hydroxyacetophenone] | unaffected | unaffected | no significant effect |  | lethal
